# Assay results from patent publication EP4741395A1, “NOVEL COMPOUND SENSITIVE TO NITROGEN MONOXIDE AND PHARMACEUTICAL COMPOSITION COMPRISING SAME” (Omniamed Co. Ltd, priority 2023, dated 2025).
# Key:
# [1] = test system: Raw 264.7 cell line; assay: NO scavenging activity in LPS-treated immune cells (Griess reagent); format: cell-based; conditions: Mus musculus, RAW264.7, Raw 264.7, LPS 500 ng/mL, 24 hours, read-out: NO Scavenging Activity (%) (Mean±SD)
# [2] = test system: IL-6 (Interleukin-6); assay: Inhibition of inflammatory cytokine secretion in LPS-treated immune cells (IL-6 sandwich ELISA); format: cell-based; conditions: Mus musculus, RAW264.7, Raw 264.7, LPS 500 ng/mL, 24 hours, read-out: IL-6 Reduction Activity (%) (Mean±SD)
# Protocol: Raw 264.7 cell line was seeded in a 48-well plate at a density of 8×10^4 cells/well, and cultured at 37°C in a DMEM medium including 10% FBS, 100 U/mL of penicillin and 100 µg/mL of streptomycin.
# The medium was cultured overnight, and then replaced with a fresh medium including 10 µM of the pharmaceutical composition sensitive to nitrogen monoxide including the compound of each of Examples 1 and 11 to 13 and 500 ng/mL of LPS, and the fresh medium was cultured again for another 24 hours.
# Lastly, the supernatant was collected, and then the level of IL-6 (Interleukin-6) expression was analyzed using a Sandwich enzyme-linked immunosorbent assay (ELISA). Specifically, a standard solution and 50 µL of the diluted supernatant were introduced to each well of a well plate coated with an antibody specific to IL-6, and after binding IL-6 to the immobilized antibody, the well was washed with a washing buffer, followed by a reaction with HRP as a secondary antibody for 30 minutes at room temperature. The well was washed three times with a washing buffer, then color was developed using TMB (3,3', 5,5'-tetramethyl benzidine) as a substrate, and the reaction was stopped using 1 M sulfuric acid to measure the degree of color development at an absorbance of 450 nm.
# [3] = test system: splenocytes; assay: NO scavenging activity in Concanavalin A-treated splenocytes (Griess assay); format: cell-based, C57BL/6 mouse; conditions: Mus musculus, Splenocyte, Concanavalin A 5 µg/mL, 72 hours, read-out: NO Scavenging Activity (%) (Mean±SD)
# Protocol: (§1) A spleen was isolated from an 8-week-old C57BL/6 mouse, and splenocytes were isolated using a physical method.
# (§2) The separated splenocytes were diluted to a concentration of 5×10^6 cells/mL in a RPMI 1640 medium including 10% FBS, 100 U/mL of penicillin and 100 µg/mL of streptomycin, and the diluted splenocytes were dispensed at 500 µL/well into a 48-well plate and 100 µL/well into a 96-well plate, and cultured for 72 hours in an incubator. The splenocytes were treated with Concanavalin A (5 µg/mL) when dispensed to induce an immune response, and herein, […] of the pharmaceutical composition including the compound according to each of the Examples was also added thereto. After 72 hours, the supernatant was collected, and the level of remaining NO was checked through a Griess assay, and calculated by the following Equation 4.
# [4] = test system: IFN-γ; assay: IFN-γ reduction activity in Concanavalin A-treated splenocytes (quantitative ELISA); format: cell-based, C57BL/6 mouse; conditions: Mus musculus, Splenocyte, Concanavalin A 5 µg/mL, 72 hours, read-out: IFN-γ Reduction Activity (%) (Mean±SD)
# Protocol: as §1, §2
# NO is one of important inflammatory mediators, and may increase the level of inflammatory cytokine. Concanavalin A (5 µg/mL), which induces an immune response in splenocytes, and the compound of each of Examples were treated in a concentration-dependent manner to check whether the level of IFN-γ, a representative inflammatory cytokine, was reduced. The supernatant was collected 72 hours after the treatment, and analyzed using a quantitative enzyme-linked immunosorbent assay (Quantitative-ELISA).
# [5] = test system: splenocytes; assay: Inhibitory activity on cell proliferation in splenocytes (CCK-8 analysis); format: cell-based, C57BL/6 mouse; conditions: Mus musculus, Splenocyte, Concanavalin A 5 µg/mL, 72 hours, read-out: Inhibitory Activity on Cell Proliferation (%) (Mean±SD)
# [6] = molecular target: T1, JAK 2 (Homo sapiens, UniProt O60674); assay: JAK Human TK kinase enzymatic radiometric assay (Eurofins), JAK 2; format: biochemical; parameters: unit not given here; conditions: value close to 100 indicates low JAK activity of the compound
# T1 construct: purchased Eurofins Scientific (assay service)
# T1 sequence (O60674 whole entry): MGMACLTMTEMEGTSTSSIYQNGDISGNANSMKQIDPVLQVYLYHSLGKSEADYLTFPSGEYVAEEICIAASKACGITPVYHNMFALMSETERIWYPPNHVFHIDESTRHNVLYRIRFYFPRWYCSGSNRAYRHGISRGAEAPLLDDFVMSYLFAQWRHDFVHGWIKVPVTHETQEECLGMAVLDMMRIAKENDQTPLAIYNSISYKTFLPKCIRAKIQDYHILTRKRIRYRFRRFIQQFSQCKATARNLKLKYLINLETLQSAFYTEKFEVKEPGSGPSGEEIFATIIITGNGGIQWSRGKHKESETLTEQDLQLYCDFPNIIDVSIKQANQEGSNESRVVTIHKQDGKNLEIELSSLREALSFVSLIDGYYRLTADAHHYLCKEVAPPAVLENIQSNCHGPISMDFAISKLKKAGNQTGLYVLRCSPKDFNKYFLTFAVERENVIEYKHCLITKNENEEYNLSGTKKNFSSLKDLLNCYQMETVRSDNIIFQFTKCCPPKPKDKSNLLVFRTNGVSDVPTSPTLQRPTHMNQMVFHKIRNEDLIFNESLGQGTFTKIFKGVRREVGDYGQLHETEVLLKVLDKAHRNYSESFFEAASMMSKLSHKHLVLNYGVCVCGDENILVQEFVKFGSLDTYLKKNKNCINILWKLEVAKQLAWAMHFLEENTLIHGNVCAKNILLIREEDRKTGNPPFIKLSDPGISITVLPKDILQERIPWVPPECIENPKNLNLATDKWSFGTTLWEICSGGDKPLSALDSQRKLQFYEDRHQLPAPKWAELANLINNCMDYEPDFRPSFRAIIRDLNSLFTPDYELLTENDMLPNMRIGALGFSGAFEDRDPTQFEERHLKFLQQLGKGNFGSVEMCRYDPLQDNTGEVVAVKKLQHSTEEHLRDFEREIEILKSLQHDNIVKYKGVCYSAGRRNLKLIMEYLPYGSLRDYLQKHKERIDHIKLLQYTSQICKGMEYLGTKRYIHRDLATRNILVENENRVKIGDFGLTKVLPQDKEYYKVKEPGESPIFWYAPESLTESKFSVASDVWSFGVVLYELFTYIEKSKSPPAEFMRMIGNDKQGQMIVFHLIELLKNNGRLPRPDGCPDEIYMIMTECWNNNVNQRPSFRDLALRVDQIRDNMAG
# Source text: (§3) For the compounds of the Examples, JAK activity of each of the compounds was verified using the JAK Human TK Kinase Enzymatic Radiometric Kinase Profiler Assay service provided by Eurofins Scientific.
# (§4) The activity was verified after inducing a reaction at the JAK 1, 2 and 3 active sites using radioactively labeled ATP.
# [7] = molecular target: T2, JAK 3 (Homo sapiens, UniProt P52333); assay: JAK Human TK kinase enzymatic radiometric assay (Eurofins), JAK 3; format: biochemical; parameters: unit not given here; conditions: value close to 100 indicates low JAK activity of the compound
# T2 construct: purchased Eurofins Scientific (assay service)
# T2 sequence (P52333 1-1124): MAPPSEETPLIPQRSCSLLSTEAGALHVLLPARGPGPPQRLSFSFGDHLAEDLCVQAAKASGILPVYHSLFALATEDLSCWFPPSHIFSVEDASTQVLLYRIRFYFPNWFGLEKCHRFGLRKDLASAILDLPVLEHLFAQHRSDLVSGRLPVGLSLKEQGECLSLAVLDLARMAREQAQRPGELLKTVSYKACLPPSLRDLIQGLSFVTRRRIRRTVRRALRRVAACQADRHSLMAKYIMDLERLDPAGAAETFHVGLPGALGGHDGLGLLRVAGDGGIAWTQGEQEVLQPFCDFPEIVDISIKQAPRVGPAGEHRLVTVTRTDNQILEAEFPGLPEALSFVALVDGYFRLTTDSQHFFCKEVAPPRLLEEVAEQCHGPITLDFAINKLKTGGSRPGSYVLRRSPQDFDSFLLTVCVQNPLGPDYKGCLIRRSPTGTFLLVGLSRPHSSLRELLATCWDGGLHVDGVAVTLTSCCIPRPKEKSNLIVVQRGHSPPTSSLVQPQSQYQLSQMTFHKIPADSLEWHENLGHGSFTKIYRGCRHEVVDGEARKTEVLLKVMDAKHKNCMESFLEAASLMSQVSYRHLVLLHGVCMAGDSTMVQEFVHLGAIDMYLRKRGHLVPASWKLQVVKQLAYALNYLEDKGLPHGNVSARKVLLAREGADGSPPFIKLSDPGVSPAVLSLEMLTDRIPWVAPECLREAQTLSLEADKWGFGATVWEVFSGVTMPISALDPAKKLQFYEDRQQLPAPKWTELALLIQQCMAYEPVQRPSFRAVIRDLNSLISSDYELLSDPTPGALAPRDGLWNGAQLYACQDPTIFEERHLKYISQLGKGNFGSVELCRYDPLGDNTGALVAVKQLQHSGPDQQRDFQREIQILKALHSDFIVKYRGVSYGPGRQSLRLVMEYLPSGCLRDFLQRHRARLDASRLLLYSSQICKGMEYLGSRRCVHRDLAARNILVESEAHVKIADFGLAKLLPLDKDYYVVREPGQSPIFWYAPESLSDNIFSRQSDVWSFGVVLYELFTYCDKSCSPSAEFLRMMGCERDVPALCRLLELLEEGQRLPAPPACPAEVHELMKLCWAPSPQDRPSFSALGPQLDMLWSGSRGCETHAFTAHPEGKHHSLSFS
# Source text: as §3, §4
# [8] = molecular target: JAK 1 (Homo sapiens, UniProt P23458); assay: JAK Human TK kinase enzymatic radiometric assay (Eurofins), JAK 1; conditions: value close to 100 indicates low JAK activity of the compound
# Chain of JAK 1 (P23458 whole entry): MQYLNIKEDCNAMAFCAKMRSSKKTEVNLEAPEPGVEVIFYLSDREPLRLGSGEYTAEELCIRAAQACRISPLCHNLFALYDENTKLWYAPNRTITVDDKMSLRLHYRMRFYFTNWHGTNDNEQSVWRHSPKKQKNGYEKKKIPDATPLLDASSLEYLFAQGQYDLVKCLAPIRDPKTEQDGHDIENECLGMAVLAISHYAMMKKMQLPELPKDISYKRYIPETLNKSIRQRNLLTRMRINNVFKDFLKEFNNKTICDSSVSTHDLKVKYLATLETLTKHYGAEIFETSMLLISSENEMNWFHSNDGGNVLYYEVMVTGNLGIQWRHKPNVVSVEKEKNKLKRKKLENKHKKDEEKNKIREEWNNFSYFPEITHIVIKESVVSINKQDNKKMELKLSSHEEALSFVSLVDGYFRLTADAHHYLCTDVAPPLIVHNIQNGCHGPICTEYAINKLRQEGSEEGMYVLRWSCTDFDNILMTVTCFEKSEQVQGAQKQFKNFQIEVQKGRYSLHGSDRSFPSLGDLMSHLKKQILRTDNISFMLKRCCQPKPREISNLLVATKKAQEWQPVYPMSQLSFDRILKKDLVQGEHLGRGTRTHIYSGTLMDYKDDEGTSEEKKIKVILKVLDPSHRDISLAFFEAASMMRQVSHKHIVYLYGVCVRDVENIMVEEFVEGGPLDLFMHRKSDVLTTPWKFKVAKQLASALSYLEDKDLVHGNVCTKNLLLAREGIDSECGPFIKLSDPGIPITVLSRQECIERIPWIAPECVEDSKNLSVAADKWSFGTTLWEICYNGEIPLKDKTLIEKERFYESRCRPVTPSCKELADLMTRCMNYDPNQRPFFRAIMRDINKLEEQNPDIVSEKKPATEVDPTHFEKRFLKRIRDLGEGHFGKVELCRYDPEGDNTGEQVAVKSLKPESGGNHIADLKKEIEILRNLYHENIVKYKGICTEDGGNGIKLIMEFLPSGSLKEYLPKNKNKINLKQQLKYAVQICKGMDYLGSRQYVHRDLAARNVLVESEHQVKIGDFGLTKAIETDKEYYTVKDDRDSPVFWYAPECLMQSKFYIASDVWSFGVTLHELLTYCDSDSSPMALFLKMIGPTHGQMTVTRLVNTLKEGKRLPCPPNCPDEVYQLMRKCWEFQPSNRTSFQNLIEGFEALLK
# [9] = Efficacy on collagen-induced rheumatoid arthritis (arthritis score); format: in vivo, DBA/1 male mice; conditions: FIG. 7
# Protocol: (§5) The experimental animals were 30 8-week-old DBA/1 male mice. […] The number of normal mice was set to five in order to minimize the number of experimental animals. The group administered with Compound (1) consisted of 5 to 6 mice, a minimal number required to obtain statistically meaningful data given the limited amount of the drug.
# (§6) In order to establish a rheumatoid arthritis model, 100 µL of a mixture solution in which 2 mg/mL of chick type II collagen and 1 mg/mL of Complete Freund's Adjuvant (CFA) were mixed in a ratio of 1:1 was administered intradermally to each of the mouse tails. After 19 days, 100 µL of an emulsion in which 2 mg/mL of chick type II collagen and Incomplete Freund's Adjuvant (IFA) were mixed in a ratio of 1:1 was administered intradermally to each of the mouse tails.
# The test substances of Table 23 were administered orally every day according to the drug dosing period and dosing frequency. As for the rheumatoid arthritis score (arthritis score), the score of each of the four paws was quantified according to the criteria shown in the following Table 24, and the individual scores were summed to generate the final score.
# as §5, with “31” for “30”, “(11)” for “(1)”, “5” for “5 to 6”, “drug. Each of the remaining groups consisted of 7 mice, with two extra mice added to account for experimental error.” for “drug.”
# as §6
# Oral administration was conducted daily according to the dose, dosing frequency and dosing period of Table 25. Based on the criteria shown in Table 24, rheumatoid arthritis score for the four paws were quantified and summed to generate the score.
structure (smiles),measurement,setting,value
"Cc1ccc(NC(=O)N(C(=O)n2ccc3c(N(C)[C@H]4CN(C(=O)CC#N)CC[C@H]4C)ncnc32)c2ccc(C)cc2N)c(N)c1 [Example 12, N-(2-amino-4-methylphenyl)-N-((2-amino-4-methylphenyl)carbamoyl)-4-(((3R,4R)-1-(2-cyanoacetyl)-4-methylpiperidin-3-yl) (methyl)amino)-7H-pyrrolo[2,3-d]pyrimidine-7-carboxamide]",activity at 10 µM,[1],31.7 ± 0.15%
same,activity at 10 µM,[2],61.7 ± 1.85%
same,activity at 10 µM,[3],64.6 ± 3.65%
same,activity at 10 µM,[4],97 ± 0.05%
same,inhibition at 10 µM,[5],64 ± 6.17%
same,JAK 2 Activity,[6]; 0.1 nM,108
same,JAK 2 Activity,[6]; 1 nM,111
same,JAK 2 Activity,[6]; 10 nM,102
same,JAK 2 Activity,[6]; 100 nM,92
same,JAK 3 Activity,[7]; 0.1 nM,114
same,JAK 3 Activity,[7]; 1 nM,107
same,JAK 3 Activity,[7]; 10 nM,111
same,JAK 3 Activity,[7]; 100 nM,88
same,JAK 1 Activity,[8]; 0.1 nM,109
same,JAK 1 Activity,[8]; 1 nM,110
same,JAK 1 Activity,[8]; 10 nM,103
same,JAK 1 Activity,[8]; 100 nM,81
"COc1ccc(NC(=O)N(C(=O)n2ccc3c(N(C)[C@H]4CN(C(=O)CC#N)CC[C@H]4C)ncnc32)c2ccc(OC)cc2N)c(N)c1 [Example 13, N-(2-amino-4-methoxyphenyl)-N-((2-amino-4-methoxyphenyl)carbamoyl)-4-(((3R,4R)-1-(2-cyanoacetyl)-4-methylpiperidin-3-yl) (methyl)amino)-7H-pyrrolo[2,3-d]pyrimidine-7-carboxamide]",activity at 10 µM,[1],34.7 ± 0.28%
same,activity at 10 µM,[2],63.1 ± 1.23%
same,activity at 10 µM,[3],66.9 ± 5.06%
same,activity at 10 µM,[4],89.7 ± 0.57%
same,inhibition at 10 µM,[5],16.1 ± 2.7%
same,JAK 2 Activity,[6]; 0.1 nM,120
same,JAK 2 Activity,[6]; 1 nM,107
same,JAK 2 Activity,[6]; 10 nM,102
same,JAK 2 Activity,[6]; 100 nM,104
same,JAK 3 Activity,[7]; 0.1 nM,113
same,JAK 3 Activity,[7]; 1 nM,109
same,JAK 3 Activity,[7]; 10 nM,112
same,JAK 3 Activity,[7]; 100 nM,92
same,JAK 1 Activity,[8]; 0.1 nM,110
same,JAK 1 Activity,[8]; 1 nM,113
same,JAK 1 Activity,[8]; 10 nM,106
same,JAK 1 Activity,[8]; 100 nM,89
"C[C@@H]1CCN(C(=O)CC#N)C[C@@H]1N(C)c1ncnc2c1ccn2C(=O)N(C(=O)Nc1ccccc1N)c1ccccc1N [Example 11, N-(2-aminophenyl)-N-((2-aminophenyl)carbamoyl)-4-(((3R,4R)-1-(2-cyanoacetyl)-4-methylpiperidin-3-yl)(methyl)amino)-7H-pyrrolo[2,3-d]pyrimidine-7-carboxamide]",activity at 10 µM,[1],48.7 ± 0.01%
same,activity at 10 µM,[3],67.7 ± 0.84%
same,activity at 10 µM,[4],57.6 ± 15.5%
same,inhibition at 10 µM,[5],49.7 ± 3.78%
same,JAK 2 Activity,[6]; 0.1 nM,91
same,JAK 2 Activity,[6]; 1 nM,99
same,JAK 2 Activity,[6]; 10 nM,89
same,JAK 2 Activity,[6]; 100 nM,98
same,JAK 3 Activity,[7]; 0.1 nM,103
same,JAK 3 Activity,[7]; 1 nM,103
same,JAK 3 Activity,[7]; 10 nM,98
same,JAK 3 Activity,[7]; 100 nM,94
same,rheumatoid arthritis-alleviating efficacy compared with tofacitinib,"[9]; 20 mg/kg oral once daily (QD) vs tofacitinib 10 mg/kg BID, entire 40-day period",alleviating efficacy comparable to that of tofacitinib
same,"rheumatoid arthritis-alleviating efficacy (arthritis score), statistics",[9]; 20 mg/kg oral once daily (QD),no statistical differences were verified
same,JAK 1 Activity,[8]; 0.1 nM,108
same,JAK 1 Activity,[8]; 1 nM,103
same,JAK 1 Activity,[8]; 10 nM,105
same,JAK 1 Activity,[8]; 100 nM,101
